{"source": "patent US9540389B2", "about": "“Antimicrobial potentiators” (priority 2013, dated 2017)", "key": {"Escherichia coli AB1157": {"test_system": "Escherichia coli AB1157", "assay": "microbe, parasite or virus in culture"}, "AcrAB-TolC efflux pump": {"molecular_target": "AcrAB-TolC efflux pump (Escherichia coli, UniProt P31224)", "sequence (P31224 whole entry)": "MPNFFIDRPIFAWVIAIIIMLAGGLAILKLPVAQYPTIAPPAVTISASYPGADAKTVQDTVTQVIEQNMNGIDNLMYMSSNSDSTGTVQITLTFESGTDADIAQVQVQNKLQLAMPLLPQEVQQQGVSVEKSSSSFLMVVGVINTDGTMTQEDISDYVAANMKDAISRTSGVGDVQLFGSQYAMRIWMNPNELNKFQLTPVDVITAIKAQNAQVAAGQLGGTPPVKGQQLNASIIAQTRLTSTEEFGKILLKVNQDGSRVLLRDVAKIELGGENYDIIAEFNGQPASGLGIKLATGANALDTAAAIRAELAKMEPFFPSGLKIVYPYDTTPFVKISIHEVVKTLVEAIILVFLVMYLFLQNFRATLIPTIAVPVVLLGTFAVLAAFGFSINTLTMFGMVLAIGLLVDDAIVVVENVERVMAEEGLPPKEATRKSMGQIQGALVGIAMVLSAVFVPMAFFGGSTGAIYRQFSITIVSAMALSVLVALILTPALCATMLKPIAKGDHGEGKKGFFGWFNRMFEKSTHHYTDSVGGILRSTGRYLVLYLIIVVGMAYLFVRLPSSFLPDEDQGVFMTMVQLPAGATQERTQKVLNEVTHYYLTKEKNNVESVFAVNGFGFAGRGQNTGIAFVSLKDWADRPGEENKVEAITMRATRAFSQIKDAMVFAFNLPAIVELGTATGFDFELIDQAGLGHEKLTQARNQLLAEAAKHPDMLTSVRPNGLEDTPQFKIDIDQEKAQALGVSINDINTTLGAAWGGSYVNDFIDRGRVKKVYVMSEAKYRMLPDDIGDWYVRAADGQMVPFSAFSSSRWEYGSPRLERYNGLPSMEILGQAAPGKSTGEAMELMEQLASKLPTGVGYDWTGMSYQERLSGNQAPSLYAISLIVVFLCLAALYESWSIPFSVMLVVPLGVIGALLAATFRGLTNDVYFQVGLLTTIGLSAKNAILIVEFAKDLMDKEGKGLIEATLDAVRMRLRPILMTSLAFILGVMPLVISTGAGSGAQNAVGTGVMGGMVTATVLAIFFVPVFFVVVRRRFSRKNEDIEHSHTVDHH", "sequence (P0AE06 25-397, further chain)": "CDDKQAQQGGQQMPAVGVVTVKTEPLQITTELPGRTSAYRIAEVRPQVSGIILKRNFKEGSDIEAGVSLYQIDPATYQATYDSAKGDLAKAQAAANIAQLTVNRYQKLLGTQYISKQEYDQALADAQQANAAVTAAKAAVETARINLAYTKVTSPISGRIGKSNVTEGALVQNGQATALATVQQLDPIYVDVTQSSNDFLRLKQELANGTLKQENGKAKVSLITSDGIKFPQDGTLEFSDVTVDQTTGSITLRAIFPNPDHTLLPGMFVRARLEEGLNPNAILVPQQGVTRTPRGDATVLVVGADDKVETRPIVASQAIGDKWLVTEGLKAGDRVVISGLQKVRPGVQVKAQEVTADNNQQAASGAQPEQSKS", "sequence (P02930 23-493, further chain)": "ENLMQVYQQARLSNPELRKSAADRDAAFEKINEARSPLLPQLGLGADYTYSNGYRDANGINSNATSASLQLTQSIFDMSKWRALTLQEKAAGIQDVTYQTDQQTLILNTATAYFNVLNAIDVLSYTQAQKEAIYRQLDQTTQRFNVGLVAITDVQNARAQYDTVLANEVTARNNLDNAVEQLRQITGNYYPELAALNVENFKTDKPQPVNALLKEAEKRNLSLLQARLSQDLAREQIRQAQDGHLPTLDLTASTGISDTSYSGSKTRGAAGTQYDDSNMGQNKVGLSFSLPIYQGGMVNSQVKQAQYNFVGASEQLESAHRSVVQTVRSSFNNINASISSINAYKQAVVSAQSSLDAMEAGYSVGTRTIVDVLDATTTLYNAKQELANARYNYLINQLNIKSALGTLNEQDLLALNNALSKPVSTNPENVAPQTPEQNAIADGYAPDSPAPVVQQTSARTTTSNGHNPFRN", "assay": "H33342 accumulation assay", "type": "cell-based", "design": "endogenous in cells; host or cells: E. coli 331 (fluoroquinolone-resistant)", "details": "E. coli 331 (CIPR); 25 μM"}, "E. coli AB1157 ΔacrF": {"test_system": "E. coli AB1157 ΔacrF", "assay": "Time-kill assay (CIP and/or EPI)", "type": "cell-based, Escherichia coli", "details": "25 μM MBX2319 + 1×MIC CIP, 2 hours", "procedure": "(§1) Panel (C): Bactericidal activity of CIP alone, 25 μM MBX2319 alone, or 25 μM MBX2319 combined with a bacteriostatic concentration of CIP against E. coli AB1157 and isogenic efflux defective mutants after 2 hours exposure. […] Panel (D): Bactericidal activity of CIP alone, 25 μM MBX2319 alone, 25 μM PAβN alone, and a bacteriostatic concentration of CIP combined with 25 μM MBX2319 or combined with 25 μM PAβN against the following organisms: a) E. coli AB1157, b) E. coli ATCC 25922, c) K. pneumoniae ATCC 700603, d) S. flexneri ATCC 12022, e) S. enterica ATCC 14028, f) E. aerogenes ATCC 13048.\n(§2) • Strains and Reagents. The following strains were obtained from the Keio collection (Baba, et al.: Construction of Escherichia coli K-12 in-frame, single-gene knockout mutants: the Keio collection. In Mol Syst Biol, vol. 2, pp. 2006 0008, (2006)): JW0451 (ΔacrB::kan), JW5503 (ΔtolC::kan), JW3234 (ΔacrF::kan), JW2661 (ΔemrB::kan), JW0863 (ΔmacB::kan). The deletion mutations in each of these strains were transferred to AB1157 using P1 phage transduction (see Table 1). The construction of the E. coli cell-based reporter strain (SOS-XXX) that was used for high throughput screening is described in detail in the supplementary information. […] Irgasan was a generous gift from Ciba Speciality Chemicals, Inc. (High Point, N.C.). Hoechst 33342 (H33342) was purchased from Molecular Probes (Eugene, Oreg.). […] Luria Broth (Miller) and agar were purchased as prepared dehydrated media from Becton Dickenson (Franklin Lakes, N.J.). The compound libraries used in high-throughput screens were purchased from Chembridge (San Diego, Calif.), ChemDiv (San Diego, Calif.), and TimTec (Newark, Del.). MBX2319 was synthesized by Microbiotix, Inc. • Antibacterial Activity Assays. The minimal inhibitory concentration (MIC) of antibacterial agents and biocides were determined using the microbroth dilution method essentially as described in the CLSI protocol M7-A7 (CLSI: Method for dilution antimicrobial susceptibility testing for bacteria that grow aerobically; Approved standard-document M7-A7. In Clinical and Laboratory Standards Institute document M7-A7, Clinical and Laboratory Standards Institute, Wayne, Pa., (2006)), with the following exceptions. LB media was used instead of MHB. […] The final concentration of DMSO in each assay was 2%. […] MIC assays were performed in triplicate and the geometric mean was calculated. […] Viability was monitored over 2-4 hours by making serial dilutions in saline and spotting 5 μl of each dilution onto the surface of an LB agar plate in triplicate. Colonies were counted after the plates were incubated at 37° C. for 16-18 hr, colony forming units (CFU) per ml were calculated, and the average and standard deviation for the three replicates was determined. […]"}, "E. coli AB1157": {"test_system": "E. coli AB1157", "assay": "Time-kill assay (CIP and/or EPI)", "type": "cell-based, Escherichia coli", "procedure": "as §1, §2"}}, "data": [{"molecule": "CCN1CCN(C(=O)N[C@@H](C(=O)N[C@@H]2C(=O)N3[C@@H]2SC(C)(C)[C@@H]3C(=O)O)c2ccccc2)C(=O)C1=O", "note": "[Piperacillin, piperacillin]", "values": [{"measurement": "MIC", "setting": "Escherichia coli AB1157", "value": 4, "unit": "µg/mL"}]}, {"molecule": "CC1(C)Cc2c(C#N)c(SCCc3ccccc3)nc(N3CCOCC3)c2CO1", "note": "[MBX2319]", "values": [{"measurement": "H33342 accumulation", "setting": "AcrAB-TolC efflux pump", "value": "weak activity"}, {"measurement": "potentiation of the bactericidal activity of CIP", "setting": "E. coli AB1157 ΔacrF", "value": "potentiated the bactericidal activity of CIP"}, {"measurement": "decreased viability (CFU/ml) as compared to 1×MIC CIP alone", "setting": "E. coli AB1157; 3.13 μM MBX2319 + […] CIP, 4 hr exposure", "value": "10,000 fold"}, {"measurement": "effect on bactericidal activity of […] CIP (1×MIC)", "setting": "E. coli AB1157; MBX2319 up to 3.13 μM, dose-dependent, PAβN as high as 100 μM", "value": "increased the bactericidal activity"}, {"measurement": "effect on growth, compound alone", "setting": "E. coli AB1157; alone at concentrations up to 50 μM", "value": "did not affect growth"}]}]}
